The numbers were not newly measured in patent publication US10954430B2, “Low-toxicity, low-flammability, environmentally-safe, friction reducer fluid for hydraulic fracturing” (priority 2012, dated 2021), which cites them from elsewhere.

Values after ≈ are worked out from the molar mass of the structure shown. Read-outs that look alike come from different tables or passages of the source.

The subject of data set [1] is rat.
For data set [2], the system named is Pimephales promelas (fathead minnow).
In data set [3] the test system is daphnia magna (water flea).
For data set [4], the system named is most sensitive species. The conditions noted are these: eco-toxicity.
Data set [5] concerns animal. The conditions noted are these: in vivo.

With `CC(O)COc1ccccc1` (stereo not drawn) [Dowanol PPH, propylene glycol phenyl ether], the LD50 in data set [1] (in vivo) is > 2,000 mg/kg. Besides, the values for the LC50 in data set [2] (Pimephales promelas) and in data set [3] (Daphnia magna) were 280 µg/mL (≈ 1840 µM) and 370 µg/mL (≈ 2430 µM), respectively. The “LC50 for most sensitive species” value in data set [4] was more than 100 µg/mL. Besides, the animal toxicity result in data set [5] was “does not have significant animal toxicity”.
On to `CC1COC(=O)O1` (stereo not drawn) [Propylene carbonate, propylene carbonate], for which the “LD50 for oral toxicity” value in data set [1] (oral) is more than 5000 mg/kg.
On to `OCCCO` [propanediol], for which the LD50 entry in data set [1] (oral) is recorded as “over 15,000 mg/kg”. The aquatic toxicity profile in data set [2] (Pimephales promelas (fathead minnow)) is > 9,270 mg/L; in data set [3] (daphnia magna (water flea)), more than 7.417 mg/L.

The term LC50 denotes the concentration that kills 50% of the test population.
